# According to patent US20140235630A1, “COMPOSITIONS AND METHODS FOR THE TREATMENT OF PROLIFERATIVE DISEASES” (Beth Israel Deaconess Medical Center, Inc., priority 2011, published 2014):
# Columns and labels:
# [1] = test system: spontaneous tumors of MMTV-CreBRCA1^f/fp53+/− mice; test: Tumor growth (relative tumor volume, doubling time) in spontaneous BRCA1-related breast cancer model; assay type: in vivo, mouse; settings: for tumor doubling time: Compound A 50 or 30 mg/kg/day gavage (pooled), Compound B 50 mg/kg/day i.p., vehicle 5 days; for prolongation of tumor doubling time versus vehicle control: versus 5 days with vehicle
# Protocol: FIGS. 6A-6D are graphs showing the synergistic effect of a PI3K inhibitor (Compound A) and PARP inhibitor (Compound B) in treating breast cancer. Trendlines (bold lines) were calculated using all data points to determine best fit and show the relative tumor growth in the vehicle control cohort (as in FIG. 6A) and in the Compound A cohort (as in FIG. 6B). The functions of the best-fit curves were used to determine tumor doubling times for all three treatment modalities and controls. Tumor-bearing MMTV-CreBRCA1^f/fp53+/− were treated with either vehicle control (6A); Compound A (6B, 50 mg/kg/day (n=11) or 30 mg/kg/day (n=10)); Compound B (6C, 50 mg/kg/day (n=8)); or the combination of Compound A and Compound B (6D, Compound A 50 mg/kg/day+Compound B 50 mg/kg/day (n=8) or Compound A 30 mg/kg/day+Compound B 50 mg/kg/day (n=7)) and tumor volumes were measured every 2-3 days using calipers.
# FIG. 7 is a graph showing the relative tumor volume (RTV) over time of tumor-bearing MMTV-CreBRCA1^f/fp53+/− mice treated with a control vehicle (n=3), PI3Kα-specific inhibitor Compound C alone (n=7), or a combination of pan-PARP inhibitor Compound B and PI3Kα-specific inhibitor Compound C (n=6). The data of the control and Compound C alone treatment groups are represented by trendlines calculated using all data points to determine best fit. The data of the combination treatment group are individually represented.
# All animal experiments were conducted in accordance with IACUC-approved protocols at Beth Israel Deaconess Medical Center, Boston, and at the University of Vall d'Hebron, Barcelona, Spain. Female MMTV-CreBRCA1^f/fp53+/− mice were obtained by breeding BRCA1 conditional knockout mice from the NIH repository (01XC8, strain C57BL/6) (Xu et al. Nat. Genet., 22: 37-43, 1999); with MMTV-Cre (Jackson Laboratory B6129-TgN(MMTV-Cre)4Mam) (Wagner et al. Nucleic Acids Res., 25: 4323-4330, 1997) and p53 knockout (Taconic Farms, P53N12-M, C57BL/6) (Donehower et al. Nature, 356: 215-221, 1992). At the time of the study, mice had been inbred for 4 years (>7 generations). The floxed or wild type status of Brca1, the presence of the MMTV-Cre transgene and the p53 heterozygosity were determined by PCR. Mice were examined for the occurrence of tumors twice weekly. When tumormetrics were performed, the length and width of the tumor was determined using calipers, and the tumor volume was determined (width^2×length/2). Tumor volume was used as a measure of growth and was recorded as ratio to tumor volume at diagnosis. Tumor doubling times were calculated using the functions of the best fit curves for all data points in each treatment modality. […]
# [2] = test system: patient-derived tumor with BRCA1 germline mutation 2080delA; test: Patient-derived BRCA1 2080delA breast tumor xenograft growth; assay type: in vivo, human; settings: untreated patient; Compound A 30 mg/kg/day, Compound B 50 mg/kg/day
# From the text: FIGS. 6G and 6H are graphs showing the relative tumor volume (RTV) over time of tumors from breast cancer tissues from two patients, one with a 185delAG germline mutation (6G) and the other one with a 2080delA germline mutation (6H), propagated as subcutaneous implants in nude mice. Tumors were allowed to grow to a size of 5 mm when mice were randomized to treatments with either vehicle control (squares), Compound A (upside-down triangles), Compound B (triangles), or their combination (diamonds) (n=6 for each cohort, same dosing as in 6F).
# All animal experiments were conducted in accordance with IACUC-approved protocols at Beth Israel Deaconess Medical Center, Boston, and at the University of Vall d'Hebron, Barcelona, Spain. […] The floxed or wild type status of Brca1, the presence of the MMTV-Cre transgene and the p53 heterozygosity were determined by PCR. […] When tumormetrics were performed, the length and width of the tumor was determined using calipers, and the tumor volume was determined (width^2×length/2). Tumor volume was used as a measure of growth and was recorded as ratio to tumor volume at diagnosis. Tumor doubling times were calculated using the functions of the best fit curves for all data points in each treatment modality. […]
SMILES,tumor doubling time [1] [days],prolongation of tumor doubling time versus vehicle control [1],sensitivity of patient-derived tumor (relative tumor volume) [2]
"Nc1cc(C(F)(F)F)c(-c2cc(N3CCOCC3)nc(N3CCOCC3)n2)cn1 [Compound A, 5-(2,6-dimorpholinopyrimidin-4-yl)-4-(trifluoromethyl)pyridin-2-amine]",26,5 fold,exquisite sensitivity
"O=C(c1cc(Cc2n[nH]c(=O)c3ccccc23)ccc1F)N1CCN(C(=O)C2CC2)CC1 [Compound B, 4-[[3-[4-(cyclopropanecarbonyl)piperazine-1-carbonyl]-4-fluorophenyl]methyl]-2H-phthalazin-1-one, reference compound]",16,three-fold,exquisite sensitivity
